Laboratory results reported in patent US7230001B1, “Arylalkane, arylalkene and aryl azaalkane, medicaments containing said compounds and method for the production thereof” (Boehringer Ingelheim Pharma GmbH & Co. KG, priority 1999, dated 2007).

| Structure (SMILES) | melting point |
| --- | --- |
| COc1ccc(C(=O)CCC(=O)N2CCC(N3Cc4ccccc4NC3=O)CC2)cc1 [compound 25, 3,4-dihydro-3-{1-[1,4-dioxo-4-(4-methoxyphenyl)butyl]-4-piperidinyl}-2(1H)-quinazolinone] | 171 to 172 °C |
| Nc1c(Br)cc(C(=O)CCC(=O)N2CCN(c3cc4ccccc4[nH]c3=O)CC2)cc1Br [compound 59, 3-{1-[4-(4-amino-3,5-dibromophenyl)-1,4-dioxobutyl]-4-piperazinyl}-2(1H)-quinolinone] | 272 to 274 °C (dec.) |
| O=C(CCC(=O)N1CCC(N2Cc3ccccc3NC2=O)CC1)c1ccc(F)cc1 [compound 67, 3-{1-[1,4-dioxo-4-(4-fluorophenyl)butyl]-4-piperidinyl}-3,4-dihydro-2(1H)-quinazolinone] | 164 to 166 °C |
| O=C(CCC(=O)N1CCC(N2Cc3ccccc3NC2=O)CC1)c1ccc(Cl)c([N+](=O)[O-])c1 [compound 28, 3,4-dihydro-3-{1-[4-(4-chloro-3-nitrophenyl)-1,4-dioxo-butyl]-4-piperidinyl}-2(1H)-quinazolinone] | 207 to 209 °C |
| Nc1ccc(C(=O)CCC(=O)N2CCC(n3cc(-c4ccccc4)[nH]c3=O)CC2)cc1Br [compound 24, 1-{1-[4-(4-amino-3-bromophenyl)-1,4-dioxobutyl]-4-piperidinyl}-1,3-dihydro-4-phenyl-2(2H)-imidazolone] | 267 °C |
| O=C(CCC(=O)N1CCC(N2Cc3ccccc3NC2=O)CC1)c1ccc(-c2ccccc2)cc1 [compound 62, 3-{1-[4-(4-biphenylyl)-1,4-dioxobutyl]-4-piperidinyl}-3,4-dihydro-2(1H)-quinazolinone] | 200 °C |
| Nc1c(Br)cc(C(=O)CCC(=O)N2CCN(c3nc4ccccc4[nH]c3=O)CC2)cc1Br [compound 61, 3-{1-[4-(4-amino-3,5-dibromophenyl)-1,4-dioxobutyl]-4-piperazinyl}-2(1H)-quinoxalinone] | 246 to 252 °C |
| N#Cc1ccc(C(=O)CCC(=O)N2CCC(N3Cc4ccccc4NC3=O)CC2)cc1 [compound 72, 3-{1-[4-(4-cyanophenyl)-1,4-dioxobutyl]-4-piperidinyl}-3,4-dihydro-2(1H)-quinazolinone] | 191 to 193 °C |
| Nc1c(Br)cc(C(=O)CCC(=O)N2CCC(N3Cc4ccncc4NC3=O)CC2)cc1Br [compound 42, 3-{1-[4-(4-amino-3,5-dibromophenyl)-1,4-dioxobutyl]-4-piperidinyl}-3,4-dihydro-2(1H)-pyrido[3,4-d]pyrimidinone] | > 250 °C |
| CC(=O)Nc1ccc(C(=O)CCC(=O)N2CCC(N3Cc4ccccc4NC3=O)CC2)cc1Br [compound 18, 3-{1-[4-(4-acetylamino-3-bromophenyl)-1,4-dioxobutyl]-4-piperidinyl}-3,4-dihydro-2(1H)-quinazolinone] | 243 °C |
| CNc1ccc(C(=O)CCC(=O)N2CCC(N3Cc4ccccc4NC3=O)CC2)cc1[N+](=O)[O-] [compound 27, 3,4-dihydro-3-{1-[1,4-dioxo-4-(4-methylamino-3-nitrophenyl)butyl]-4-piperidinyl}-2(1H)-quinazolinone] | 258 to 259 °C (dec.) |
| CC(=O)Nc1ccc(C(=O)CCC(=O)N2CCC(n3cc(-c4ccccc4)[nH]c3=O)CC2)cc1Br [compound 21, 1-{1-[4-(4-acetylamino-3-bromophenyl)-1,4-dioxobutyl]-4-piperidinyl}-1,3-dihydro-4-phenyl-2(2H)-imidazolone] | 243 °C |
| Nc1c(Br)cc(C(=O)CCC(=O)N2CCC(N3Cc4cccnc4NC3=O)CC2)cc1Br [compound 13, 3-{1-[4-(4-amino-3,5-dibromophenyl)-1,4-dioxobutyl]-4-piperidinyl}-3,4-dihydro-2(1H)-pyrido[2,3-d]pyrimidinone] | > 225 °C |
| Nc1c(Br)cc(C(=O)CCC(=O)N2CCC(N3Cc4cnccc4NC3=O)CC2)cc1Br [compound 43, 3-{1-[4-(4-amino-3,5-dibromophenyl)-1,4-dioxobutyl]-4-piperidinyl}-3,4-dihydro-2(1H)-pyrido[4,3-d]pyrimidinone] | > 250 °C |
| COc1cc2c(cc1OC)NC(=O)N(C1CCN(C(=O)CCC(=O)c3cc(Br)c(N)c(Br)c3)CC1)C2 [compound 29, 3-{1-[4-(4-amino-3,5-dibromophenyl)-1,4-dioxobutyl]-4-piperidinyl}-3,4-dihydro-6,7-dimethoxy-2(1H)-quinazolinone] | 256 to 258 °C |
| O=C(CCC(=O)N1CCC(N2Cc3ccccc3NC2=O)CC1)c1ccc(Cl)cc1 [compound 26, 3,4-dihydro-3-{1-[4-(4-chlorophenyl)-1,4-dioxobutyl]-4-piperidinyl}-2(1H)-quinazolinone] | 237 to 238 °C |
| COc1ccccc1C(=O)CCC(=O)N1CCC(N2Cc3ccccc3NC2=O)CC1 [compound 66, 3-{1-[1,4-dioxo-4-(2-methoxyphenyl)butyl]-4-piperidinyl}-3,4-dihydro-2(1H)-quinazolinone] | 174 to 175 °C |
| Nc1c(Br)cc(CCCC(=O)N2CCC(n3cc(-c4ccccc4)[nH]c3=O)CC2)cc1Br [compound 64, 1-{1-[4-(4-amino-3,5-dibromophenyl)-1-oxobutyl]-4-piperidinyl}-1,3-dihydro-4-phenyl-2(2H)-imidazolone] | 162.5 to 163.5 °C |
| O=C(CCC(=O)N1CCC(N2Cc3ccccc3NC2=O)CC1)c1cc(Br)cc(Br)c1 [compound 65, 3-{1-[4-(3,5-dibromophenyl)-1,4-dioxobutyl]-4-piperidinyl}-3,4-dihydro-2(1H)-quinazolinone] | 212 to 214 °C |
| CC(=O)Nc1ccc(C(=O)CCC(=O)N2CCC(n3c(=O)[nH]c4ccccc43)CC2)cc1Br [compound 19, 1-{1-[4-(4-acetylamino-3-bromophenyl)-1,4-dioxobutyl]-4-piperidinyl}-1,3-dihydro-2(2H)-benzimidazolone] | 128 °C |
